Test results taken from patent publication US7029840B2 (priority 2000, dated 2006).
Like-named read-outs stand apart in the source and are kept apart here.

Experiments:
[1] = tested on: intact cells of N. gonorrhoeae; experiment: Stability of cells of N. gonorrhoeae in urine with sodium citrate, 14 days at room temperature (SDA, MOTA value); format: cell-based, N. gonorrhoeae ATCC 19424; settings: 100 mM; for Average MOTA Value: urine
Procedure: (§1) The samples were spiked with cells of N. gonorrhoeae a final concentration 2500 cells/ml. Each sample was incubated for 14 days at room temperature. At specific time points (day 0, 6, and 14), 2.0-ml volumes of each sample (eight replicates) was centrifuged at 2000×g for 30 minutes at room temperature. The supernate was decanted and the cell pellet was resuspended with a 2.0-ml volume of BSA/PBS, and then centrifuged at 2000×g for 30 minutes at room temperature. Again, the supernatant was decanted and the cell pellet was resuspended with a 2.0-ml volume of CT/GC diluent. […] SDA was performed on the cell lysate as described in Example 1.

[2] = tested on: N. gonorrhoeae plasmid DNA; settings: for Average MOTA Value: 60 min room temperature after DNA spike
Procedure: Twenty-milliliter volumes of negative pooled urine were prepared with 10, 40, and 100 mM sodium citrate (final concentration); 10, 20, and 40 mM EDTA (final concentration); and without chemical additive. In addition, a 20-ml volume of negative pooled urine was heated for 30 minutes (heated-treated urine). The samples were incubated for 60 minutes at room temperature. After the incubation step, the samples were spiked with N. gonorrhoeae plasmid DNA (2500 DNA copies/ml). The samples were incubated for 60 minutes at room temperature. After the incubation step, two-ml volumes from each sample (eight replicates) were heated for 30 minutes at 114° C. to denature the DNA.
A 1-ml volume of the 8 replicates as described above was added to ferrosoferric oxide. A 100-ul volume of 6 M glycine HCl was added to each sample. The DNA-ferrosoferric oxide complexes were separated on a magnet and washed two times with a 900-ul volume of 1 mM glycine HCl to reduce the ionic strength and remove nonspecifically bound materials. The DNA was released from the ferrosoferric oxide with 480-ul volume of elution buffer (88.3 mM KOH, 177.8 mM bicine, 12.1% (v/v) glycerol, and 11.0% (v/v) DMSO [final concentration]).
Strand Displacement Amplification (SDA) was performed according to the manufacturer's instructions (BDProbeTec™ET Chlamydia trachomatis and N. gonorrhoeae Amplified DNA Assay Package Insert L-000203 [November 1999]). A 150-ul volume of each sample was added into a priming microwell. The priming microwell plate was incubated for 20 minutes at room temperature, after which the plate was incubated at 72.5° C. The amplification microwell plate was incubated at 54° C. After 10 minutes, a 100-ul volume from each priming microwell was added into the corresponding amplification microwell. The amplification microwell plate was place in a BD ProbeTec ET instrument. Data was reported as MOTA value (metric other than acceleration).

[3] = tested on: intact cells of N. gonorrhoeae; format: cell-based, N. gonorrhoeae ATCC 19424; settings: for average MOTA values for day 0 versus day 6: 100 mM sodium citrate, sodium fluoride, sodium borate, 5 mM EDTA, urine at 5, 25, 35, and 45° C.; for Average MOTA Value: 100 mM, urine
Procedure: as §1
The samples were spiked with cells of N. gonorrhoeae at a final concentration of 2500 cells/ml. Each sample was incubated for 6 days at 5, 25, 35, and 45° C. At specific time points (day 0 and 6), the samples were processed by centrifugation at 2000×g as described in Example 2. […] SDA was performed on the cell lysates as described in Example 1.

[4] = tested on: N. gonorrhoeae plasmid DNA; experiment: Stability of N. gonorrhoeae plasmid DNA in urine, 3 days at room temperature (SDA, MOTA value); format: biochemical, Neisseria gonorrhoeae; settings: 100 mM
Procedure: The samples were incubated for 3 days at room temperature. […] SDA was performed on the isolated DNA as described in Example 1.

[5] = tested on: intact cells of N. gonorrhoeae; format: cell-based, N. gonorrhoeae ATCC 19424; settings: urine, room temperature; for average amplification MOTA values at day 0 versus day 6: 100 mM sodium citrate, sodium fluoride, sodium borate, 5 mM EDTA
Procedure: as §1
Forty-milliliter volumes of negative urine was prepared with 100 mM sodium citrate (final concentration); 5, 10, and 15% (v/v) sucrose (final concentration); 5, 10, and 15% (v/v) PVP (final concentration); 5, 10, and 15 mM magnesium chloride (final concentration); 10 and 100 mM sodium fluoride (final concentration); 10 and 100 mM sodium formate (final concentration); 10 and 100 mM sodium borate (final concentration); 0.5 and 5 mM EDTA (final concentration); 0.5 and 5 mM EGTA (final concentration); and without chemical additive. The samples were spiked with cells of N. gonorrhoeae at a final concentration of 2500 cells/ml. Each sample was incubated for 6 days at room temperature. At specific time points (day 0 and 6), the samples were processed by centrifugation at 2000×g as described in Example 2. […] SDA was performed on the cell lysate as described in Example 1.

| SMILES | average MOTA values for day 0 versus day 6 [3] | Average MOTA Value ([3]; 5° C., Day 0) | Average MOTA Value ([3]; 5° C., Day 6) | Average MOTA Value ([3]; 25° C., Day 0) | Average MOTA Value ([3]; 25° C., Day 6) | Average MOTA Value ([3]; 35° C., Day 0) | Average MOTA Value ([3]; 35° C., Day 6) | Average MOTA Value ([3]; 45° C., Day 0) | Average MOTA Value ([3]; 45° C., Day 6) | Average MOTA Value ([4]; Day 0) | Average MOTA Value ([4]; Day 3) | average amplification MOTA values at day 0 versus day 6 [5] | Average MOTA Value ([5]; 100 mM, Day 0) | Average MOTA Value ([5]; 100 mM, Day 6) | Average MOTA Value ([5]; 10 mM, Day 0) | Average MOTA Value ([5]; 10 mM, Day 6) | also measured |
| --- | --- | --- | --- | --- | --- | --- | --- | --- | --- | --- | --- | --- | --- | --- | --- | --- | --- |
| O=C([O-])CC(O)(CC(=O)[O-])C(=O)[O-].[Na+].[Na+].[Na+] [sodium citrate, Sodium citrate, trisodium salt] | no significant difference | 56773 | 57701 | 59703 | 51791 | 54238 | 51468 | 59944 | 63623 | 26852 | 30978 | not significantly different | 27310 | 26394 | – | – | time for which stability of intact cells of N. gonorrhoeae in human urine was maintained [1]: ≥ 14 days; Average MOTA Value ([1]; Day 0): 30200; Average MOTA Value ([1]; Day 6): 25391; Average MOTA Value ([1]; Day 10): 27522; Average MOTA Value ([1]; Day 14): 20953; Average MOTA Value ([2]; 10 mM additive in human urine): 6673; Average MOTA Value ([2]; 40 mM additive in human urine): 36684; Average MOTA Value ([2]; 100 mM additive in human urine): 24069; protection of N. gonorrhoeae plasmid DNA from degradation in human urine by endogenous nucleases ([2]; sodium citrate at 10, 20, and 40 mM, EDTA at 10, 40, 100 mM (so in the source)): protected N. gonorrhoeae plasmid DNA from degradation |
| [F-].[Na+] [sodium fluoride, Sodium fluoride] | no significant difference | 43807 | 59543 | 44945 | 47391 | 41608 | 47347 | 45741 | 48043 | 27811 | 42689 | not significantly different | 26385 | 24559 | 32162 | 10894 | – |
| O=C[O-].[Na+] [sodium formate, Sodium formate] | – | – | – | – | – | – | – | – | – | – | – | – | 29357 | 2139 | 34446 | 2211 | – |
| OC[C@H]1O[C@@](CO)(O[C@H]2O[C@H](CO)[C@@H](O)[C@H](O)[C@H]2O)[C@@H](O)[C@@H]1O [sucrose, Sucrose] | – | – | – | – | – | – | – | – | – | – | – | – | – | – | – | – | Average MOTA Value ([5]; 5% (v/v), Day 0): 28427; Average MOTA Value ([5]; 5% (v/v), Day 6): 501; Average MOTA Value ([5]; 10% (v/v), Day 0): 29548; Average MOTA Value ([5]; 10% (v/v), Day 6): 5555; Average MOTA Value ([5]; 15% (v/v), Day 0): 27391; Average MOTA Value ([5]; 15% (v/v), Day 6): 8497 |
